Assay results as given in patent publication US20160122320A1, “USEFUL COMBINATIONS OF MONOBACTAM ANTIBIOTICS WITH BETA-LACTAMASE INHIBITORS” (Basilea Pharmaceutica AG, priority 2005, published 2016).
Where a name gives a salt, the structure may show the parent alone.

What was measured:
Test in all cases: MIC, NCCLS broth microdilution
Assay type in all cases: cell-based
Enterobacter cloacae P99 = conditions: for MIC of antibiotic at fixed inhibitor concentration (4 mg/L): MIC of antibiotic compound 1 with the labelled bridged monobactam of formula II and clavulanate, 4 mg/L each
[1] = system: Stenotrophomonas malthophilia 1AC736; conditions: for MIC of antibiotic at fixed inhibitor concentration (4 mg/L): Stenotrophomonas malthophilia 1AC736, MIC of antibiotic compound 1 with the labelled bridged monobactam of formula II and clavulanate, 4 mg/L each
Method: Antimicrobial activity of the compounds and of their combinations was determined against a selection of organisms according to the standard procedures described by the National Committee for Clinical Laboratory Standards (National Committee for Clinical Laboratory. Standards (2000). Methods for Dilution Antimicrobial Susceptibility Tests for Bacteria That Grow Aerobically-Fifth Edition: Approved Standard M7-A5. NCCLS, Wayne, Pa., USA).
In all cases the final concentration of DMSO incubated with the bacteria is less than or equal to 1%. […] Plates were incubated overnight at an appropriate temperature (30° C. or 37° C.) and optical densities assessed by eye. The MIC value is defined as the lowest compound concentration completely inhibiting visible growth of the test organism. When combinations between compounds of formula I with compounds of formula II and are evaluated the compounds of formula I are tested in dilution series as described above while the compounds of formula II and III-XIII were present in all wells at a constant concentration of 4 μg/mL each.

Acinetobacter sp. J2 = conditions: for MIC of antibiotic at fixed inhibitor concentration (4 mg/L): Acinetobacter sp. J2, MIC of antibiotic compound 1 with the labelled bridged monobactam of formula II and clavulanate, 4 mg/L each
[2] = system: Klebsiella pneumoniae CF104; conditions: for MIC of antibiotic at fixed inhibitor concentration (4 mg/L): MIC of antibiotic compound 1 with the labelled bridged monobactam of formula II and clavulanate, 4 mg/L each
[3] = system: Pseudomonas aeruginosa MK1184; conditions: for MIC of antibiotic at fixed inhibitor concentration (4 mg/L): MIC of antibiotic compound 1 with the labelled bridged monobactam of formula II and clavulanate, 4 mg/L each
[4] = system: Pseudomonas aeruginosa 1973E; conditions: for MIC of antibiotic at fixed inhibitor concentration (4 mg/L): MIC of antibiotic compound 1 with the labelled bridged monobactam of formula II and clavulanate, 4 mg/L each
How it was run: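 Broth microdilution per NCCLS M7-A5, final DMSO ≤1%, overnight incubation at 30° C. or 37° C. MIC is the lowest concentration completely inhibiting visible growth, read by eye. In combination tests, formula I compounds were serially diluted with formula II and III-XIII partners held at 4 μg/mL each.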

Serratia marcescens S6 = conditions: for MIC of antibiotic at fixed inhibitor concentration (4 mg/L): MIC of antibiotic compound 1 with the labelled bridged monobactam of formula II and clavulanate, 4 mg/L each

O=C(C[n+]1cccc(-c2ccccc2)c1)N1CC[C@@H]2[C@H]1C(=O)N2S(=O)(=O)[O-] [Compound 124, (1S,5R)-7-oxo-2-[2-(3-phenylpyridinium)acetyl]-2,6-diazabicyclo[3.2.0]heptane-6-sulfonate, inner salt]
MIC of antibiotic at fixed inhibitor concentration (4 mg/L) (Enterobacter cloacae P99): 32 mg/L
MIC of antibiotic at fixed inhibitor concentration (4 mg/L) [1]: 0.125 mg/L
MIC of antibiotic at fixed inhibitor concentration (4 mg/L) (Acinetobacter sp. J2): >32 mg/L
MIC of antibiotic at fixed inhibitor concentration (4 mg/L) [2]: 0.125 mg/L
MIC of antibiotic at fixed inhibitor concentration (4 mg/L) [3]: 32 mg/L
MIC of antibiotic at fixed inhibitor concentration (4 mg/L) [4]: 8 mg/L
MIC of antibiotic at fixed inhibitor concentration (4 mg/L) (Serratia marcescens S6): 0.25 mg/L

NC(=O)c1cnccc1C(=O)NCC(=O)N1CC[C@@H]2[C@H]1C(=O)N2S(=O)(=O)O [Compound 402, (1S,5R)-2-{2-[(3-carbamoylpyridyl-4)carbonylamino]acetyl}-7-oxo-2,6-diazabicyclo[3.2.0]heptane-6-sulfonic acid]
MIC of antibiotic at fixed inhibitor concentration (4 mg/L) (Enterobacter cloacae P99): 32 mg/L
MIC of antibiotic at fixed inhibitor concentration (4 mg/L) [1]: <0.06 mg/L
MIC of antibiotic at fixed inhibitor concentration (4 mg/L) (Acinetobacter sp. J2): 8 mg/L
MIC of antibiotic at fixed inhibitor concentration (4 mg/L) [2]: <0.06 mg/L
MIC of antibiotic at fixed inhibitor concentration (4 mg/L) [3]: 32 mg/L
MIC of antibiotic at fixed inhibitor concentration (4 mg/L) [4]: 4 mg/L
MIC of antibiotic at fixed inhibitor concentration (4 mg/L) (Serratia marcescens S6): 0.25 mg/L

O=C(N[C@H]1CCNC1)c1ccc[n+](CC(=O)N2CC[C@@H]3[C@H]2C(=O)N3S(=O)(=O)[O-])c1 [Compound 122, 2-(2-{3-[N-((3S)pyrrolidin-3-yl)carbamoyl]pyridinium}acetyl)(1S,5R)-7-oxo-2,6-diazabicyclo[3.2.0]heptane-6-sulfonate, inner salt]
MIC of antibiotic at fixed inhibitor concentration (4 mg/L) (Enterobacter cloacae P99): 16 mg/L
MIC of antibiotic at fixed inhibitor concentration (4 mg/L) [1]: 0.125 mg/L
MIC of antibiotic at fixed inhibitor concentration (4 mg/L) (Acinetobacter sp. J2): >32 mg/L
MIC of antibiotic at fixed inhibitor concentration (4 mg/L) [2]: 0.125 mg/L
MIC of antibiotic at fixed inhibitor concentration (4 mg/L) [3]: 16 mg/L
MIC of antibiotic at fixed inhibitor concentration (4 mg/L) [4]: 4 mg/L
MIC of antibiotic at fixed inhibitor concentration (4 mg/L) (Serratia marcescens S6): 0.25 mg/L

O=C(Nc1ccc(NC(=O)N2CC[C@@H]3[C@H]2C(=O)N3S(=O)(=O)O)cc1)N1CCNCC1 [Compound 326, (1S,5R)-7-oxo-2-{N-[4-(piperazinylcarbonylamino)phenyl]carbamoyl}-2,6-diazabicyclo[3.2.0]heptane-6-sulfonic acid]
MIC of antibiotic at fixed inhibitor concentration (4 mg/L) (Enterobacter cloacae P99): 8 mg/L
MIC of antibiotic at fixed inhibitor concentration (4 mg/L) [1]: 0.125 mg/L
MIC of antibiotic at fixed inhibitor concentration (4 mg/L) (Acinetobacter sp. J2): 4 mg/L
MIC of antibiotic at fixed inhibitor concentration (4 mg/L) [2]: >32 mg/L
MIC of antibiotic at fixed inhibitor concentration (4 mg/L) [3]: 32 mg/L
MIC of antibiotic at fixed inhibitor concentration (4 mg/L) [4]: 4 mg/L
MIC of antibiotic at fixed inhibitor concentration (4 mg/L) (Serratia marcescens S6): 0.125 mg/L

NC(C(=O)N1CC[C@@H]2[C@H]1C(=O)N2S(=O)(=O)O)c1ccc(O)c(O)c1 (stereo partly drawn) [Compound 403]
MIC of antibiotic at fixed inhibitor concentration (4 mg/L) (Enterobacter cloacae P99): 32 mg/L
MIC of antibiotic at fixed inhibitor concentration (4 mg/L) [1]: 0.125 mg/L
MIC of antibiotic at fixed inhibitor concentration (4 mg/L) (Acinetobacter sp. J2): 8 mg/L
MIC of antibiotic at fixed inhibitor concentration (4 mg/L) [2]: 4 mg/L
MIC of antibiotic at fixed inhibitor concentration (4 mg/L) [3]: >32 mg/L
MIC of antibiotic at fixed inhibitor concentration (4 mg/L) [4]: 2 mg/L
MIC of antibiotic at fixed inhibitor concentration (4 mg/L) (Serratia marcescens S6): 0.5 mg/L

Cc1cc[n+](CC(=O)N2CC[C@@H]3[C@H]2C(=O)N3S(=O)(=O)[O-])cc1C [Compound 121, (1S,5R)-2-[2-(3,4-dimethylpyridinium)acetyl]-7-oxo-2,6-diazabicyclo[3.2.0]heptane-6-sulfonate, inner salt]
MIC of antibiotic at fixed inhibitor concentration (4 mg/L) (Enterobacter cloacae P99): 32 mg/L
MIC of antibiotic at fixed inhibitor concentration (4 mg/L) [1]: 0.25 mg/L
MIC of antibiotic at fixed inhibitor concentration (4 mg/L) (Acinetobacter sp. J2): >32 mg/L
MIC of antibiotic at fixed inhibitor concentration (4 mg/L) [2]: 0.25 mg/L
MIC of antibiotic at fixed inhibitor concentration (4 mg/L) [3]: 16 mg/L
MIC of antibiotic at fixed inhibitor concentration (4 mg/L) [4]: 4 mg/L
MIC of antibiotic at fixed inhibitor concentration (4 mg/L) (Serratia marcescens S6): 0.25 mg/L

NC(=O)CNC(=O)c1ccc(NC(=O)N2CC[C@@H]3[C@H]2C(=O)N3S(=O)(=O)[O-])cc1.[Na+] [Compound 312, Sodium(1S,5R)-2-(N-{4-[N-(carbamoylmethyl)carbamoyl]phenyl}carbamoyl)-7-oxo-2,6-diazabicyclo[3.2.0]heptane-6-sulfonate]
MIC of antibiotic at fixed inhibitor concentration (4 mg/L) (Enterobacter cloacae P99): 8 mg/L
MIC of antibiotic at fixed inhibitor concentration (4 mg/L) [1]: 0.125 mg/L
MIC of antibiotic at fixed inhibitor concentration (4 mg/L) (Acinetobacter sp. J2): >32 mg/L
MIC of antibiotic at fixed inhibitor concentration (4 mg/L) [2]: 4 mg/L
MIC of antibiotic at fixed inhibitor concentration (4 mg/L) [3]: >32 mg/L
MIC of antibiotic at fixed inhibitor concentration (4 mg/L) [4]: 8 mg/L
MIC of antibiotic at fixed inhibitor concentration (4 mg/L) (Serratia marcescens S6): 0.5 mg/L

O=C(C[n+]1cccc(Cc2ccccc2)c1)N1CC[C@@H]2[C@H]1C(=O)N2S(=O)(=O)[O-] [Compound 123, (1S,5R)-7-oxo-2-{2-[3-benzylpyridinium]acetyl}-2,6-diazabicyclo[3.2.0]heptane-6-sulfonate, inner salt]
MIC of antibiotic at fixed inhibitor concentration (4 mg/L) (Enterobacter cloacae P99): 32 mg/L
MIC of antibiotic at fixed inhibitor concentration (4 mg/L) [1]: 0.125 mg/L
MIC of antibiotic at fixed inhibitor concentration (4 mg/L) (Acinetobacter sp. J2): >32 mg/L
MIC of antibiotic at fixed inhibitor concentration (4 mg/L) [2]: 0.125 mg/L
MIC of antibiotic at fixed inhibitor concentration (4 mg/L) [3]: 32 mg/L
MIC of antibiotic at fixed inhibitor concentration (4 mg/L) [4]: 4 mg/L
MIC of antibiotic at fixed inhibitor concentration (4 mg/L) (Serratia marcescens S6): 0.25 mg/L

O=C(N[C@@H]1CCNC1)c1ccc[n+](CC(=O)N2CC[C@@H]3[C@H]2C(=O)N3S(=O)(=O)[O-])c1 [Compound 125, 2-(2-{3-[N-((3R)pyrrolidin-3-yl)carbamoyl]pyridinium}acetyl)(1S,5R)-7-oxo-2,6-diazabicyclo[3.2.0]heptane-6-sulfonate, inner salt]
MIC of antibiotic at fixed inhibitor concentration (4 mg/L) (Enterobacter cloacae P99): 32 mg/L
MIC of antibiotic at fixed inhibitor concentration (4 mg/L) [1]: 0.125 mg/L
MIC of antibiotic at fixed inhibitor concentration (4 mg/L) (Acinetobacter sp. J2): 4 mg/L
MIC of antibiotic at fixed inhibitor concentration (4 mg/L) [2]: <0.06 mg/L
MIC of antibiotic at fixed inhibitor concentration (4 mg/L) [3]: 16 mg/L
MIC of antibiotic at fixed inhibitor concentration (4 mg/L) [4]: 8 mg/L
MIC of antibiotic at fixed inhibitor concentration (4 mg/L) (Serratia marcescens S6): 0.5 mg/L

O=C(Nc1ccccc1)N1CC[C@@H]2[C@H]1C(=O)N2S(=O)(=O)[O-].[Na+] [Compound 301]
MIC of antibiotic at fixed inhibitor concentration (4 mg/L) (Enterobacter cloacae P99): 16 mg/L
MIC of antibiotic at fixed inhibitor concentration (4 mg/L) [1]: 0.125 mg/L
MIC of antibiotic at fixed inhibitor concentration (4 mg/L) (Acinetobacter sp. J2): 8 mg/L
MIC of antibiotic at fixed inhibitor concentration (4 mg/L) [2]: 1 mg/L
MIC of antibiotic at fixed inhibitor concentration (4 mg/L) [3]: >32 mg/L
MIC of antibiotic at fixed inhibitor concentration (4 mg/L) [4]: 4 mg/L
MIC of antibiotic at fixed inhibitor concentration (4 mg/L) (Serratia marcescens S6): 0.25 mg/L

CC1C(NC(=O)C(=NOCc2cc(=O)c(O)cn2O)c2nsc(N)n2)C(=O)N1S(=O)(=O)O (stereo not drawn) [Compound 2]
MIC of antibiotic (Enterobacter cloacae P99; antibiotic alone, no inhibitor): >32 mg/L
MIC of antibiotic at fixed inhibitor concentration of 4 mg/L (Enterobacter cloacae P99; with 206 and clavulanate): 16 mg/L
MIC of antibiotic ([1]; Stenotrophomonas maltophilia 1AC736, antibiotic alone, no inhibitor): 4 mg/L
MIC of antibiotic at fixed inhibitor concentration of 4 mg/L ([1]; Stenotrophomonas maltophilia 1AC736, with 206 and clavulanate): 0.5 mg/L
MIC of antibiotic (Acinetobacter sp. J2; Acinetobacter baumannii J2, antibiotic alone, no inhibitor): 4 mg/L
MIC of antibiotic at fixed inhibitor concentration of 4 mg/L (Acinetobacter sp. J2; Acinetobacter baumannii J2, with 206 and clavulanate): 16 mg/L
MIC of antibiotic ([2]; antibiotic alone, no inhibitor): >32 mg/L
MIC of antibiotic at fixed inhibitor concentration of 4 mg/L ([2]; with 206 and clavulanate): 8 mg/L
MIC of antibiotic ([3]; antibiotic alone, no inhibitor): 8 mg/L
MIC of antibiotic at fixed inhibitor concentration of 4 mg/L ([3]; with 206 and clavulanate): 16 mg/L
MIC of antibiotic ([4]; antibiotic alone, no inhibitor): 8 mg/L
MIC of antibiotic at fixed inhibitor concentration of 4 mg/L ([4]; with 206 and clavulanate): 8 mg/L
MIC of antibiotic (Serratia marcescens S6; antibiotic alone, no inhibitor): >32 mg/L
MIC of antibiotic at fixed inhibitor concentration of 4 mg/L (Serratia marcescens S6; with 206 and clavulanate): >32 mg/L
